Patent US9944597B2, “Polysubstituted pyrroles having microtubule-disrupting, cytotoxic and antitumor activities and methods of use thereof” (THE BOARD OF REGENTS OF THE UNIVERSITY OF TEXAS SYSTEM, priority 2013, dated 2018)
Read-outs that look alike come from different tables or passages of the source.

How the values were obtained:
[1] = test system: MDA-MB-435 (human melanoma cancer cells); test: Antiproliferative SRB assay, MDA-MB-435; format: cell-based; conditions: read-out: MDA-MB-435 Anti-Proliferative Activity, IC50
Method: (§1) Cell Culture. Various representative cancer and other cell lines were sourced and grown as described previously [Mooberry, S. L., et al., Mol. Pharm. 72, 132-140 (2007)]. MDA-MB-435 (human melanoma cancer cells), and MDA-MB-231 (human breast cancer cells) were grown in IMEM Richter's Medium (Life Technologies, Grand Island, N.Y.) with 10% FBS (Hyclone, Logan, Utah) and 25 μg/mL gentamicin sulfate (Life Technologies). A-10 (embryonic rat vascular smooth muscle cells) and HeLa (human cervical cancer cells), SK-OV-3 (human ovarian cancer cells) and SK-OV-3-MDR-1-M6/6 (a clone of the SK-OV-3 that was generated from SK-OV-3 cells by adenovirus-mediated expression of MDR1) were grown in Basal Medium Eagle (BME, Sigma-Aldrich, St. Louis, Mo.) containing Earle's salts, 50 μg/ml gentamicin sulfate, and 10% FBS. HeLa cells (a single-cell clone derived from transduction of HeLa cells with wild-type (WT) βIII-tubulin) were grown in Dulbecco's Modified Eagle's Medium (DMEM, Life Technologies) containing 50 μg/mL gentamicin sulfate and 10% FBS.
(§2) Antiproliferative Effects. The pyrrole compounds were evaluated for their antiproliferative effects in a panel of cancer cell lines. Cells were plated into 96-well plates at predetermined densities and allowed to attach and proliferate for 24 hr, and then the compounds were added. After a 48 hr exposure to the compounds, the cells were fixed with trichloroacetic acid and cellular protein was determined using the sulforhodamine B (SRB) assay (Skehan et al., J. Natl. Cancer Inst. 82, 1107-12, (1990); Boyd and Paull Drug Devel. Res. 34, 91-109, (1995)). Concentration response curves were constructed, and the IC50 (the concentration required to inhibit proliferation by 50%) values were determined from the linear portions of the log concentration-response curves as described previously [Tinley, T. L., et al., Cancer Res. 63, 3211-3220, (2003)] as shown in Table 48.

[2] = test system: HeLa (human cervical cancer cells); test: Antiproliferative SRB assay, HeLa; format: cell-based
Method: as §1, §2
(§3) First, drug resistance mediated by the expression of βIII tubulin was evaluated in an isogenic HeLa cell line pair. Expression of the βIII tubulin isotype is associated with clinical drug resistance to the taxanes in ovarian cancer, non small-cell lung cancer and breast cancer [Galmarini, C. M., et al., Clin. Cancer Res. 14, 4511-4516 (2008)]. Secondly, drug resistance mediated by the expression of the drug efflux pump protein, Pgp, was evaluated in the isogenic SK-OV-3 cell line pair. The expression of Pgp can lead to lower intracellular drug concentrations and diminished cytotoxic effects both in vitro and in vivo. All tubulin-binding anticancer drugs used currently in the clinic, except cabazitaxel, are substrates for Pgp, thus limiting their utility in drug resistant tumors [Penson, R. T., et al., Gynecol. Oncol. 93, 98-106 (2004)]. Differences in sensitivity between the parent and transformed cell line, indicative of resistance, was determined by calculating relative resistance (Rr) values in the two pairs of isogenic cell lines (dividing the IC50 of the expressing cell line by the IC50 of the parental cell line).

[3] = test system: SK-OV-3 (human ovarian cancer cells); test: Antiproliferative SRB assay, SK-OV-3; format: cell-based
Method: as §1, §2
as §3, with “The expression of Pgp can lead to lower intracellular drug concentrations and diminished cytotoxic effects both in vitro and in vivo.” left out

[4] = test system: HeLa WT-β-III cells; test: Antiproliferative SRB assay, βIII-tubulin expressing HeLa; format: cell-based, human; conditions: for IC50: Table 49, βIII tubulin expressing line, 48 hr, SRB assay; for Rr (β-III): relative resistance: IC50 of expressing line divided by IC50 of parental HeLa
Method: as §1, §2, §3

[5] = test system: SK-OV-3-MDR-1-6/6 cells; test: Antiproliferative SRB assay, Pgp expressing SK-OV-3; format: cell-based, human; conditions: for IC50: Table 49, Pgp expressing line, 48 hr, SRB assay; for Rr (Pgp): relative resistance: IC50 of expressing line divided by IC50 of parental SK-OV-3
Method: as §1, §2
as §3, with “The expression of Pgp can lead to lower intracellular drug concentrations and diminished cytotoxic effects both in vitro and in vivo.” left out

[6] = test system: A-10 cells; test: Cellular microtubule loss by indirect immunofluorescence; format: cell-based, rat; conditions: read-out: EC50 Values (nM) for Microtubule Loss in A-10 cells
Method: The effects of representative compounds on cellular microtubules were evaluated in A-10 (embryonic rat vascular smooth muscle cell line) cells using indirect immunofluorescence techniques as previously described (Tinley et al., Cancer Res. 63, 3211-20 (2003)). Cells were visualized using a Nikon Eclipse 80i fluorescence microscope and NIS Elements software. Changes in both interphase and mitotic microtubules were noted and photographed. The EC50 values, the concentration that causes approximately 50% loss of interphase microtubules was determined by evaluating a range of concentrations of each compound and the percent cellular microtubule depolymerization that was observed visually at each concentration was noted.
Microtubules were visualized by indirect immunofluorescence using a β-tubulin antibody, and the DNA was visualized with DAPI. A representative concentration response curve for NT-7-16 is also shown in FIG. 1 that was used to calculate its corresponding EC50 for microtubule loss. Concentration response curves for microtubule loss were plotted using data from at least three experiments for each compound and the corresponding EC50 values for microtubule loss are presented in Table 50.

[7] = Homo sapiens, MDA-MB-435, Table 48, 48 hr exposure, SRB assay
[8] = Homo sapiens, MDA-MB-435, Table 52
[9] = Homo sapiens, HeLa, Table 48, 48 hr exposure, read-out: HeLa Anti-Proliferative Activity, IC50
[10] = Homo sapiens, HeLa, Table 49, parental line, 48 hr, read-out: HeLa IC50
[11] = Homo sapiens, SK-OV-3, Table 48, 48 hr exposure, read-out: SK-OV-3 Anti-Proliferative Activity, IC50
[12] = Homo sapiens, SK-OV-3, Table 49, parental line, 48 hr, read-out: SK-OV-3 IC50
[13] = Rattus norvegicus, A10, Table 50, concentration causing approximately 50% loss of interphase microtubules
[14] = Table 49, parental line, 48 hr, read-out: HeLa IC50
[15] = Table 49, parental line, 48 hr, read-out: SK-OV-3 IC50
[16] = Table 50, concentration causing approximately 50% loss of interphase microtubules

Molecule	IC50 [1, 7] [nM]	IC50 [1, 8] [nM]	IC50 [2, 9] [nM]	IC50 [3, 11] [nM]	IC50 ([4]; Homo sapiens, HeLa) [nM]	IC50 ([5]; Homo sapiens, SK-OV-3) [nM]	EC50 [6, 13] [nM]	melting point [°C]	IC50 [2, 10] [nM]	IC50 [3, 12] [nM]	Rr (β-III) [4]	Rr (Pgp) [5]	further results
CCOC(=O)c1[nH]c(C=NO)c(-c2ccc(OC)c(OC)c2OC)c1Cl (mixture of isomers) [Example 21, Cis/Trans-3-chloro-4-(2,3,4-trimethoxyphenyl)-5-oximino-1H-pyrrole 2-carboxylic acid ethyl ester]	87.7 ± 10	87.7 ± 10	123 ± 6.5	175 ± 30.4	109 ± 9.5	419 ± 30.4	170	135 to 140	123 ± 6.5	175 ± 30.4	0.9	1.9	
CCOC(=O)c1cc(-c2ccc(OC)c(OC)c2OC)c(C=O)[nH]1 [Example 1, 4-(2,3,4-trimethoxyphenyl)-5-formyl-1H-pyrrole 2-carboxylic acid ethyl ester]								138 to 140					
CCOC(=O)c1[nH]c(CO)c(-c2ccc(OC)c(OC)c2OC)c1Br [Example 5, 3-Bromo-5-(hydroxymethyl)-4-(2,3,4-trimethoxyphenyl)-1H-pyrrole 2-carboxylic acid ethyl ester]	25.7 ± 0.8	25.7 ± 0.8	33.4 ± 0.8	37.4 ± 1.3	27.4 ± 3.1	46.6 ± 2.1	76		33.4 ± 0.8	37.4 ± 1.3	0.8	1.2	
C=Cc1[nH]c(C(=O)OCC)c(Br)c1-c1ccc(OC)c(OC)c1OC [Example 7, 3-Bromo-5-vinyl-4-(2,3,4-trimethoxyphenyl)-1H-pyrrole 2-carboxylic acid ethyl ester]	17.6 ± 1	17.6 ± 1	23.8 ± 1.7	26.6 ± 1.1	20.5 ± 0.8	28.1 ± 1.9	54		23.8 ± 1.7	26.6 ± 1.1	0.9	1.1	
CCOC(=O)c1[nH]c(C(=O)O)c(-c2ccc(OC)c(OC)c2OC)c1Br [Example 9, 3-Bromo-4-(2,3,4-trimethoxyphenyl)-5-carboxy-1H-pyrrole 2-carboxylic acid ethyl ester]	1530	1530	2340				4600	173 to 175	2340				
CCOC(=O)c1[nH]c(C=NO)c(-c2ccc(OC)c(OC)c2OC)c1Br [Example 10c]											1.4	1.8	IC50 ([1]; Table 52): 14 ± 0.8 nM; IC50 [2, 14]: 18 ± 0.9 nM; IC50 [3, 15]: 23.1 ± 0.5 nM; IC50 [4]: 25 ± 1.4 nM; IC50 [5]: 41.6 ± 1.9 nM; EC50 [6, 16]: 56.2 nM; EC50 ([6]; Table 52): 56.2 nM
CCOC(=O)c1[nH]c(CNCCNC(=O)OC(C)(C)C)c(-c2ccc(OC)c(OC)c2OC)c1Br [Example 19, 3-Bromo-5-[((N-2-tert-butoxycarbonylamino)-ethylamino)-methyl]-4-(2,3,4-trimethoxyphenyl)-1H-pyrrole 2-carboxylic acid ethyl ester]								235 to 237					
CCOC(=O)c1[nH]c(CNCCN)c(-c2ccc(OC)c(OC)c2OC)c1Br [Example 20, 5-[N-((2-Aminoethyl)amino)methyl]-3-Bromo-4-(2,3,4-trimethoxyphenyl)-1H-pyrrole 2-carboxylic acid ethyl ester]								135 to 137					
Cis-3-Bromo-4-(2,3,4-trimethoxyphenyl)-5-oximino-1H-pyrrole 2-carboxylic acid ethyl ester [Example 10b]											1.1	1.5	IC50 ([1]; Table 48, 48 hr exposure, SRB assay): 25.3 ± 3.1 nM; IC50 ([1]; Table 52): 25.3 ± 3.1 nM; IC50 ([2]; Table 48, 48 hr exposure, read-out: HeLa Anti-Proliferative Activity, IC50): 29.4 ± 1 nM; IC50 [2, 14]: 29.4 ± 1 nM; IC50 ([3]; Table 48, 48 hr exposure, read-out: SK-OV-3 Anti-Proliferative Activity, IC50): 33.7 ± 1.3 nM; IC50 [3, 15]: 33.7 ± 1.3 nM; IC50 [4]: 31.3 ± 0.5 nM; IC50 [5]: 49.6 ± 2.4 nM; EC50 [6, 16]: 108 nM; EC50 ([6]; Table 52): 108 nM

More lines, main results first:

IC50 [1, 7] [nM]	IC50 [1, 8] [nM]	IC50 [2, 9] [nM]	IC50 [3, 11] [nM]	IC50 ([4]; Homo sapiens, HeLa) [nM]	IC50 ([5]; Homo sapiens, SK-OV-3) [nM]	EC50 [6, 13] [nM]	melting point [°C]	Molecule	IC50 [2, 10] [nM]	IC50 [3, 12] [nM]	Rr (β-III) [4]	Rr (Pgp) [5]	further results
23.9 ± 1.2	23.9 ± 1.2	14.8 ± 0.2	16.4 ± 0.9	26 ± 1	10.4 ± 0.9	55		CCOC(=O)c1[nH]c(/C=C\C(=O)OC)c(-c2ccc(OC)c(OC)c2OC)c1Br [Example 8a, Cis-3-Bromo-5-(3-methoxy-3-oxoprop-1-en-1-yl)-4-(2,3,4-trimethoxyphenyl)-1H-pyrrole-2-carboxylic acid ethyl ester]	14.8 ± 0.2	16.4 ± 0.9	1.8	0.6	
9.3 ± 0.3	9.3 ± 0.3	10.9 ± 0.3	22.3 ± 0.5	19.4 ± 0.4	26.7 ± 0.3	24		CCOC(=O)c1[nH]c(/C=C/C(=O)OC)c(-c2ccc(OC)c(OC)c2OC)c1Br [Example 8b, Trans-3-Bromo-5-(3-methoxy-3-oxoprop-1-en-1-yl)-4-(2,3,4-trimethoxyphenyl)-1H-pyrrole-2-carboxylic acid ethyl ester]	10.9 ± 0.3	22.3 ± 0.5	1.8	1.2	
